Data: paper PMC6966871 (Journal of Hematology & Oncology, 2020)

Assays:
[1] = design: species or system human (Chinese patients); conditions: human, in vivo
Method: (§1) For the single-dose PK test in the cycle 0, serial peripheral blood samples were collected at pre-dose and at 0.5, 1, 2, 3, 4, 6, 8, 12, 16, 24, 48, 72, and 144 h post-dose. For the continuous dose PK test in the cycle 1, serial peripheral blood samples were collected at pre-dose on days 8, 15, 22, and 28, and at 0.5, 1, 2, 3, 4, 5, 6, 8, 12, 16, 24, 48, and 72 h post-dose on day 28. All serial peripheral blood samples were collected in heparin sodium anticoagulation tubes and centrifuged at 1900g for 10 min before storage at − 80 °C until analysis.

[2] = Continuous dose (QD) pharmacokinetics (cycle 1, day 28) in patients; type: in vivo, human (Chinese patients); conditions: continuous QD dosing, 100 mg to 800 mg
Method: as §1

[3] = test system: advanced non-small cell lung cancer; assay: Tumor response assessed by investigators per RECIST v1.1; type: in vivo, human (Chinese patients); conditions: for Partial remission (PR) / Progressive disease (PD): number of patients (%)
c-MET [h] = test system: c-MET [h]; design: method as in unpublished data; conditions: 0.2 μM in vitro; one range for all five kinases; ref unpublished data; cited from earlier work
AXL [h] = test system: AXL [h]; design: method as in unpublished data; conditions: 0.2 μM in vitro; one range for all five kinases; ref unpublished data; cited from earlier work
KDR [h] = test system: KDR [h]; design: method as in unpublished data; conditions: 0.2 μM in vitro; one range for all five kinases; ref unpublished data; cited from earlier work
DDR2[h] = test system: DDR2[h]; design: method as in unpublished data; conditions: 0.2 μM in vitro; one range for all five kinases; ref unpublished data; cited from earlier work
Ron [h] = test system: Ron [h]; design: method as in unpublished data; conditions: 0.2 μM in vitro; one range for all five kinases; ref unpublished data; cited from earlier work
VEGFR = test system: VEGFR; design: method as in unpublished data; conditions: preclinical; ref unpublished data; read-out: IC50 against VEGFR; cited from earlier work
[4] = biological target: wild-type c-Met tyrosine kinase; conditions: enzymatic assay; read-out: IC50 against wild-type c-Met tyrosine kinase; cited from earlier work
EBC-1 cell line = conditions: read-out: IC50 against the growth of lung cancer EBC-1 cell line; cited from earlier work
AXL kinase = conditions: read-out: IC50 against AXL kinase; cited from earlier work
[5] = test system: lung adenocarcinoma patient-derived xenograft (PDX); conditions: with overexpression of c-MET; ref our preclinical study; cited from earlier work
phosphorylation of c-MET = conditions: patient-derived xenograft tumors and MET-amplified cell lines, dose-dependent; cited from earlier work
[6] = 100 mg/qd group (printed 1 0 mg/qd), n = 4
[7] = 20 patients, AEs reported by > 20% of patients
[8] = safety population N = 20, 100–800 mg qd, number of patients (%)

O=C(Nc1ccc(Oc2ccnc3c2CCN3)c(F)c1)c1c[nH]cc(-c2ccc(F)cc2)c1=O
dose at which exposure (AUC and Cmax) reached saturation [1]: 600 mg | dose proportionality of maximal plasma concentration (Cmax) [1]: increased obviously less than dose proportionally | dose proportionality of plasma exposure (AUC0–last) [1]: increased slightly less than dose proportionally | mean t1/2 (half-life) [1]: 7.9 to 37.3 h | time after which steady-state concentration was reached [2]: 28 days | Disease control rate, % (95%CI) [3, 6]: 0 (NA, NA) % | Objective remission rate, % (95%CI) [3, 6]: 0 (NA, NA) % | Partial remission (PR) [3, 6]: 0 | Progressive disease (PD) [3, 6]: 3 (100.0%) | Disease control rate, % (95%CI) ([3]; 200 mg/qd group, n = 3): 66.7 (9.43, 99.16) % | Objective remission rate, % (95%CI) ([3]; 200 mg/qd group, n = 3): 0 (NA, NA) % | Partial remission (PR) ([3]; 200 mg/qd group, n = 3): 0 | Progressive disease (PD) ([3]; 200 mg/qd group, n = 3): 1 (33.3%) | Disease control rate, % (95%CI) ([3]; 300 mg/qd group, n = 3): 66.7 (9.43, 99.16) % | Objective remission rate, % (95%CI) ([3]; 300 mg/qd group, n = 3): 0 (NA, NA) % | Partial remission (PR) ([3]; 300 mg/qd group, n = 3): 0 | Progressive disease (PD) ([3]; 300 mg/qd group, n = 3): 1 (33.3%) | Disease control rate, % (95%CI) ([3]; 450 mg/qd group, n = 4): 50.0 (6.76, 93.24) % | Objective remission rate, % (95%CI) ([3]; 450 mg/qd group, n = 4): 0 (NA, NA) % | Partial remission (PR) ([3]; 450 mg/qd group, n = 4): 0 | Progressive disease (PD) ([3]; 450 mg/qd group, n = 4): 2 (50.0%) | Disease control rate, % (95%CI) ([3]; 600 mg/qd group, n = 3): 66.7 (9.43, 99.16) % | Objective remission rate, % (95%CI) ([3]; 600 mg/qd group, n = 3): 0 (NA, NA) % | Partial remission (PR) ([3]; 600 mg/qd group, n = 3): 0 | Progressive disease (PD) ([3]; 600 mg/qd group, n = 3): 1 (33.3%) | Disease control rate, % (95%CI) ([3]; 800 mg/qd group, n = 3): 100.0(29.24,100.0) % | Objective remission rate, % (95%CI) ([3]; 800 mg/qd group, n = 3): 33.3 (0.84, 90.57) % | Partial remission (PR) ([3]; 800 mg/qd group, n = 3): 1 (33.3%) | Progressive disease (PD) ([3]; 800 mg/qd group, n = 3): 0 | patients with tumor burden reduced from baseline ([3]; 19 evaluable patients): 53% | ORR ([3]; 19 evaluable patients, text (95% CI 0.1–26%)): 5% | DCR ([3]; 19 evaluable patients, text (95% CI 34–80%)): 58% | Disease control rate, % (95%CI) ([3]; Total, N = 20 (19 evaluable)): 57.9 (33.50, 79.75) % | Objective remission rate, % (95%CI) ([3]; Total, N = 20 (19 evaluable)): 5.3 (0.13, 26.03) % | Partial remission (PR) ([3]; Total, N = 20 (19 evaluable)): 1 (5.3%) | Progressive disease (PD) ([3]; Total, N = 20 (19 evaluable)): 8 (42.1%) | number of patients with a partial response ([3]; among 19 evaluable patients): 1 | number of patients with stable disease ([3]; among 19 evaluable patients): 10 patients | DCR ([3]; patients (n = 11) with MET gene amplification or c-MET overexpression, exploratory): 82% | ORR ([3]; patients without MET dysregulation (eight patients), exploratory): 0% | inhibition of c-MET [h] (c-MET [h]): 88–100% | AEs (any grades) leading to dose adjustment (600 mg/qd group): one patient | AEs (any grades) leading to dose discontinuation (600 mg/qd group n = 2, 800 mg/qd group n = 2): four patients | TRAE of grade 3 or higher: hypertension (20 patients): 15% | TRAE of grade 3 or higher: laryngeal pain (20 patients): 5% | TRAE of grade 3 or higher: pulmonary embolism (20 patients): 5% | TRAE: constipation (20 patients): 30% | TRAE: dysgeusia (20 patients): 40% | TRAE: increased ALT / ALT elevation (20 patients): 40% | gastrointestinal symptoms such as vomiting and diarrhea, frequency reported (20 patients): ≤ 10% | patients experiencing grade 3 AEs (20 patients): 45% | rate of dose reduction due to AEs (20 patients): 5% | patients with TRAEs of grade 3 or higher during treatment (20 patients (300 mg/qd n = 1; 600 mg/qd n = 2; 800 mg/qd n = 1)): 20% | patients with treatment-related AEs (20 patients, 100–800 mg qd): 85% | TRAE: palmar-plantar erythrodysesthesia syndrome (20 patients, abstract): 15% | TRAE: hypertension (20 patients, any grade): 25% | AE (any cause): constipation [7]: 40% | AE (any cause): dysgeusia [7]: 40% | AE (any cause): hypertension [7]: 25% | AE (any cause): increased alanine transaminase (ALT) [7]: 40% | AE (any cause): increased conjugated bilirubin [7]: 25% | AE (any cause): increased hemobilirubin [7]: 25% | AE (any cause): nausea [7]: 25% | dose-limiting toxicity (DLT) (doses up to 800 mg once daily): No dose-limiting toxicity (DLT) was observed | maximum tolerated dose (MTD) (maximum dose investigated 800 mg QD): not reached | serious adverse events (pulmonary embolism, 600 mg/qd group, probably related to study treatment): One serious adverse event | Treatment-related adverse event: Constipation, Grade ≥ 3 [8]: 0 | Treatment-related adverse event: Constipation, any grade [8]: 6 (30%) | Treatment-related adverse event: Dysgeusia, Grade ≥ 3 [8]: 0 | Treatment-related adverse event: Dysgeusia, any grade [8]: 8 (40%) | Treatment-related adverse event: Hypertension, Grade ≥ 3 [8]: 3 (15%) | Treatment-related adverse event: Hypertension, any grade [8]: 5 (25%) | Treatment-related adverse event: Increase AST, Grade ≥ 3 [8]: 0 | Treatment-related adverse event: Increase AST, any grade [8]: 4 (20%) | Treatment-related adverse event: Increased ALT, Grade ≥ 3 [8]: 0 | Treatment-related adverse event: Increased ALT, any grade [8]: 8 (40%) | Treatment-related adverse event: Increased conjugated bilirubin, Grade ≥ 3 [8]: 0 | Treatment-related adverse event: Increased conjugated bilirubin, any grade [8]: 5 (25%) | Treatment-related adverse event: Increased creatine phosphokinase, Grade ≥ 3 [8]: 0 | Treatment-related adverse event: Increased creatine phosphokinase, any grade [8]: 3 (15%) | Treatment-related adverse event: Increased gamma-glutamyltransferase, Grade ≥ 3 [8]: 0 | Treatment-related adverse event: Increased gamma-glutamyltransferase, any grade [8]: 4 (20%) | Treatment-related adverse event: Increased hemobilirubin, Grade ≥ 3 [8]: 0 | Treatment-related adverse event: Increased hemobilirubin, any grade [8]: 5 (25%) | Treatment-related adverse event: Increased unconjugated bilirubin, Grade ≥ 3 [8]: 0 | Treatment-related adverse event: Increased unconjugated bilirubin, any grade [8]: 3 (15%) | Treatment-related adverse event: Palmar-plantar erythrodysesthesia, Grade ≥ 3 [8]: 0 | Treatment-related adverse event: Palmar-plantar erythrodysesthesia, any grade [8]: 3 (15%) | Treatment-related adverse event: Papulosis, Grade ≥ 3 [8]: 0 | Treatment-related adverse event: Papulosis, any grade [8]: 2 (10%) | patients with drug discontinuation due to treatment-related AE (two patients in 600 mg/qd group and one in 800 mg/qd group): 15% | inhibition of AXL [h] (AXL [h]): 88–100% | inhibition of KDR [h] (KDR [h]): 88–100% | inhibition of DDR2[h] (DDR2[h]): 88–100% | inhibition of Ron [h] (Ron [h]): 88–100% | IC50 (VEGFR): 30 nM | IC50 [4]: 6 nM | IC50 (EBC-1 cell line): 120 nM | IC50 (AXL kinase): 9 nM | tumor growth of lung adenocarcinoma [5]: significantly inhibited tumor growth | phosphorylation of c-MET and downstream signaling targets (ERK, AKT) (phosphorylation of c-MET): inhibits the phosphorylation of c-MET
